Data reported in PubChem BioAssay (NCI).
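Following 48 hours of exposure in 96-well plates, responses at five concentrations were used to interpolate endpoints linearly. GI50 = concentration required for 50% inhibition of growth. TGI is the concentration that stops growth completely.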

Assays:
Experiment in all cases: NCI-60 cell line screen, 48 h; in the data active means GI50 below about 0.43 µM; inactive means the rest
786-0 renal = test system: 786-0 renal
A498 renal = test system: A498 renal
A549 NSCLC = test system: A549 NSCLC
ACHN renal = test system: ACHN renal
BT-549 breast = test system: BT-549 breast
CAKI-1 renal = test system: CAKI-1 renal
CCRF-CEM leukemia = test system: CCRF-CEM leukemia
COLO 205 colon = test system: COLO 205 colon
DU-145 prostate = test system: DU-145 prostate
EKVX NSCLC = test system: EKVX NSCLC
HCC-2998 colon = test system: HCC-2998 colon
HCT-116 colon = test system: HCT-116 colon
HCT-15 colon = test system: HCT-15 colon
HL-60(TB) leukemia = test system: HL-60(TB) leukemia
HOP-62 NSCLC = test system: HOP-62 NSCLC
HOP-92 NSCLC = test system: HOP-92 NSCLC
HS 578T breast = test system: HS 578T breast
IGROV1 ovarian = test system: IGROV1 ovarian
K-562 leukemia = test system: K-562 leukemia
KM12 colon = test system: KM12 colon
LOX IMVI melanoma = test system: LOX IMVI melanoma
M14 melanoma = test system: M14 melanoma
MALME-3M melanoma = test system: MALME-3M melanoma
MCF7 breast = test system: MCF7 breast
MDA-MB-231 breast = test system: MDA-MB-231 breast
MDA-MB-435 = test system: MDA-MB-435
MDA-MB-468 breast = test system: MDA-MB-468 breast
MOLT-4 leukemia = test system: MOLT-4 leukemia
NCI-H226 lung = test system: NCI-H226 lung
NCI-H23 lung = test system: NCI-H23 lung
NCI-H522 lung = test system: NCI-H522 lung
NCI/ADR-RES ovarian = test system: NCI/ADR-RES ovarian
OVCAR-3 ovarian = test system: OVCAR-3 ovarian
OVCAR-8 ovarian = test system: OVCAR-8 ovarian
PC-3 prostate = test system: PC-3 prostate
RPMI-8226 leukemia = test system: RPMI-8226 leukemia
RXF 393 renal = test system: RXF 393 renal
SF-268 CNS = test system: SF-268 CNS
SF-295 CNS = test system: SF-295 CNS
SF-539 CNS = test system: SF-539 CNS
SK-MEL-2 melanoma = test system: SK-MEL-2 melanoma
SK-MEL-28 melanoma = test system: SK-MEL-28 melanoma
SK-MEL-5 melanoma = test system: SK-MEL-5 melanoma
SK-OV-3 ovarian = test system: SK-OV-3 ovarian
SN12C renal = test system: SN12C renal
SNB-19 CNS = test system: SNB-19 CNS
SNB-75 CNS = test system: SNB-75 CNS
SR leukemia = test system: SR leukemia
SW-620 colon = test system: SW-620 colon
T-47D breast = test system: T-47D breast
TK-10 renal = test system: TK-10 renal
U251 CNS = test system: U251 CNS
UACC-257 melanoma = test system: UACC-257 melanoma
UACC-62 melanoma = test system: UACC-62 melanoma
UO-31 renal = test system: UO-31 renal

Cc1noc2c(Cc3ccccc3)nn(CC(=O)N/N=C/c3ccc(Br)cc3)c(=O)c12
38.7 µM: TGI (IGROV1 ovarian)
6.11 µM: TGI (NCI-H226 lung)
3.34 µM: TGI (A498 renal)
13.1 µM: TGI (HOP-62 NSCLC)
25.2 µM: TGI (CAKI-1 renal)
inactive: GI50 (786-0 renal) 1.89 µM | GI50 (A498 renal) 1.73 µM | GI50 (A549 NSCLC) 6.34 µM | GI50 (ACHN renal) 2.71 µM | GI50 (BT-549 breast) 17.7 µM | GI50 (CAKI-1 renal) 5.6 µM | GI50 (CCRF-CEM leukemia) 30.5 µM | GI50 (COLO 205 colon) 7.46 µM | GI50 (DU-145 prostate) 76.2 µM | GI50 (EKVX NSCLC) 31.3 µM | GI50 (HCC-2998 colon) > 100 µM | GI50 (HCT-116 colon) 3.31 µM | GI50 (HCT-15 colon) > 100 µM | GI50 (HL-60(TB) leukemia) > 100 µM | GI50 (HOP-62 NSCLC) 3.37 µM | GI50 (HOP-92 NSCLC) 4.3 µM | GI50 (HS 578T breast) 3.06 µM | GI50 (IGROV1 ovarian) 13.5 µM | GI50 (K-562 leukemia) 25.7 µM | GI50 (KM12 colon) > 100 µM | GI50 (LOX IMVI melanoma) 8.98 µM | GI50 (M14 melanoma) 29.8 µM | GI50 (MALME-3M melanoma) 14.5 µM | GI50 (MCF7 breast) 77 µM | GI50 (MDA-MB-231 breast) 3.34 µM | GI50 (MDA-MB-435) > 100 µM | GI50 (MDA-MB-468 breast) 9.61 µM | GI50 (MOLT-4 leukemia) 50.6 µM | GI50 (NCI-H226 lung) 2.33 µM | GI50 (NCI-H23 lung) 9.2 µM | GI50 (NCI-H522 lung) 12.9 µM | GI50 (NCI/ADR-RES ovarian) 5.64 µM | GI50 (OVCAR-3 ovarian) 3.36 µM | GI50 (OVCAR-8 ovarian) 4.62 µM | GI50 (PC-3 prostate) 29.8 µM | GI50 (RPMI-8226 leukemia) 29.1 µM | GI50 (RXF 393 renal) 3.04 µM | GI50 (SF-268 CNS) 22.8 µM | GI50 (SF-295 CNS) 5.79 µM | GI50 (SF-539 CNS) 15.8 µM | GI50 (SK-MEL-2 melanoma) 17.5 µM | GI50 (SK-MEL-28 melanoma) > 100 µM | GI50 (SK-MEL-5 melanoma) 28.4 µM | GI50 (SK-OV-3 ovarian) 3.19 µM | GI50 (SN12C renal) 3.27 µM | GI50 (SNB-19 CNS) 13.3 µM | GI50 (SNB-75 CNS) 1.74 µM | GI50 (SR leukemia) 14.7 µM | GI50 (SW-620 colon) > 100 µM | GI50 (T-47D breast) 1.96 µM | GI50 (TK-10 renal) 3.01 µM | GI50 (U251 CNS) 3.48 µM | GI50 (UACC-257 melanoma) > 100 µM | GI50 (UACC-62 melanoma) 13.2 µM | GI50 (UO-31 renal) 1.91 µM
9.49 µM: TGI (SK-OV-3 ovarian)
36.8 µM: TGI (SF-539 CNS)
21.5 µM: TGI (HOP-92 NSCLC)
88.1 µM: TGI (NCI-H522 lung)
49.4 µM: TGI (BT-549 breast)
17.7 µM: TGI (HCT-116 colon) | TGI (HS 578T breast)
41.3 µM: TGI (NCI-H23 lung)
9.71 µM: TGI (TK-10 renal)
> 100 µM: TGI (A549 NSCLC) | TGI (CCRF-CEM leukemia) | TGI (COLO 205 colon) | TGI (DU-145 prostate) | TGI (EKVX NSCLC) | TGI (HCC-2998 colon) | TGI (HCT-15 colon) | TGI (HL-60(TB) leukemia) | TGI (K-562 leukemia) | TGI (KM12 colon) | TGI (LOX IMVI melanoma) | TGI (M14 melanoma) | TGI (MCF7 breast) | TGI (MDA-MB-435) | TGI (MOLT-4 leukemia) | TGI (NCI/ADR-RES ovarian) | TGI (OVCAR-3 ovarian) | TGI (OVCAR-8 ovarian) | TGI (PC-3 prostate) | TGI (RPMI-8226 leukemia) | TGI (SF-268 CNS) | TGI (SK-MEL-28 melanoma) | TGI (SK-MEL-5 melanoma) | TGI (SN12C renal) | TGI (SR leukemia) | TGI (SW-620 colon) | TGI (UACC-257 melanoma)
6.91 µM: TGI (ACHN renal)
21.1 µM: TGI (SF-295 CNS)
33.7 µM: TGI (SK-MEL-2 melanoma)
4.67 µM: TGI (UO-31 renal)
44.3 µM: TGI (MALME-3M melanoma)
30 µM: TGI (U251 CNS)
5.46 µM: TGI (T-47D breast)
12.7 µM: TGI (MDA-MB-231 breast)
4.17 µM: TGI (786-0 renal)
12.6 µM: TGI (RXF 393 renal)
49.6 µM: TGI (UACC-62 melanoma)
35.9 µM: TGI (MDA-MB-468 breast)
6.96 µM: TGI (SNB-75 CNS)
30.2 µM: TGI (SNB-19 CNS)
